Source: ChEMBL document CHEMBL3132769, “Fragment growing to retain or alter the selectivity of anchored kinase hinge-binding fragments” (Medchemcomm, 2014)

Key:
[1] = molecular target: T1, Cytoplasmic tyrosine-protein kinase BMX (Homo sapiens) (UniProt P51813); test: Inhibition of human full length BMX expressed in baculovirus assessed as substrate phosphorylation using fluorescence-labelled peptides as substrate at 0.2 uM after 90 mins by microfluidic peptide phosphorylation assay
T1 sequence (whole entry): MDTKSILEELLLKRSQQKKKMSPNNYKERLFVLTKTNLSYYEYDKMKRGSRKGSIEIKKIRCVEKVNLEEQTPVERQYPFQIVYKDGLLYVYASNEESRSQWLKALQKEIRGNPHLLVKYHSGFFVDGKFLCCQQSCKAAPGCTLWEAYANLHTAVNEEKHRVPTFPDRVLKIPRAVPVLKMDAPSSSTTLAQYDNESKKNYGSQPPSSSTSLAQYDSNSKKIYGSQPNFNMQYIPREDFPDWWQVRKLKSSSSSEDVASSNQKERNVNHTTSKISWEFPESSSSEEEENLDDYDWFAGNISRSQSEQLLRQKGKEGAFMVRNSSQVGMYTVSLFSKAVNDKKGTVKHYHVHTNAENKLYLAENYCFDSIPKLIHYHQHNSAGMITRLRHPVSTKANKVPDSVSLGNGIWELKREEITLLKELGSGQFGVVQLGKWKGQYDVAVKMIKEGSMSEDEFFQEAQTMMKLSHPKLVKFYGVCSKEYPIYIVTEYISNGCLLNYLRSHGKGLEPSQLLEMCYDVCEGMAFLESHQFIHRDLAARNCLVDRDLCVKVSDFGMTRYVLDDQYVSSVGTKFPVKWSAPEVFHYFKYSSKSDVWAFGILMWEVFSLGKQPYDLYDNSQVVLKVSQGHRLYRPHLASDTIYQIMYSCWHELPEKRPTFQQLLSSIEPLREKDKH

[2] = molecular target: Ribosomal protein S6 kinase alpha-1 (Homo sapiens) (UniProt Q15418); test: Inhibition of human full length RSK1 expressed in baculovirus assessed as substrate phosphorylation using fluorescence-labelled peptides as substrate at 0.2 uM after 90 mins by microfluidic peptide phosphorylation assay
[3] = molecular target: Tyrosine-protein kinase ABL2 (Homo sapiens) (UniProt P42684); test: Inhibition of human truncated Arg expressed in baculovirus assessed as substrate phosphorylation using fluorescence-labelled peptides as substrate at 2 uM after 90 mins by microfluidic peptide phosphorylation assay
[4] = molecular target: Dual specificity tyrosine-phosphorylation-regulated kinase 1A (Rattus norvegicus) (UniProt Q63470); test: Inhibition of rat full length DYRK1a expressed in Escherichia coli cell assessed as substrate phosphorylation using fluorescence-labelled peptides as substrate at 0.1 uM after 90 mins by microfluidic peptide phosphorylation assay
[5] = molecular target: Insulin-like growth factor 1 receptor (Homo sapiens) (UniProt P08069); test: Inhibition of human IGF1R catalytic domain expressed in baculovirus assessed as substrate phosphorylation using fluorescence-labelled peptides as substrate at 0.1 uM after 90 mins by microfluidic peptide phosphorylation assay
[6] = molecular target: Tyrosine-protein kinase ABL2 (Homo sapiens) (UniProt P42684); test: Inhibition of human truncated Arg expressed in baculovirus assessed as substrate phosphorylation using fluorescence-labelled peptides as substrate at 95 uM after 90 mins by microfluidic peptide phosphorylation assay
[7] = molecular target: MAP kinase p38 (Homo sapiens) (UniProt O15264+Q15759+Q16539+P53778); test: Inhibition of human full length p38 beta2 expressed in Escherichia coli cell assessed as substrate phosphorylation using fluorescence-labelled peptides as substrate at 0.06 uM after 90 mins by microfluidic peptide phosphorylation assay
[8] = molecular target: MAP kinase-activated protein kinase 2 (Homo sapiens) (UniProt P49137); test: Inhibition of human full length MAPKAPK2 expressed in baculovirus assessed as substrate phosphorylation using fluorescence-labelled peptides as substrate at 8 uM after 90 mins by microfluidic peptide phosphorylation assay
[9] = molecular target: Dual specificity tyrosine-phosphorylation-regulated kinase 1A (Rattus norvegicus) (UniProt Q63470); test: Inhibition of rat full length DYRK1a expressed in Escherichia coli cell assessed as substrate phosphorylation using fluorescence-labelled peptides as substrate at 8 uM after 90 mins by microfluidic peptide phosphorylation assay
[10] = molecular target: Serine/threonine-protein kinase PAK 2 (Homo sapiens) (UniProt Q13177); test: Inhibition of human truncated PAK2 expressed in Escherichia coli cell assessed as substrate phosphorylation using fluorescence-labelled peptides as substrate at 8 uM after 90 mins by microfluidic peptide phosphorylation assay
[11] = system: Fibroblast growth factor receptor 2 (Homo sapiens), P21802 [N549H]; test: Inhibition of human FGFR2 N549H mutant catalytic domain expressed in baculovirus assessed as substrate phosphorylation using fluorescence-labelled peptides as substrate at 8 uM after 90 mins by microfluidic peptide phosphorylation assay
[12] = molecular target: Insulin-like growth factor 1 receptor (Homo sapiens) (UniProt P08069); test: Inhibition of human IGF1R catalytic domain expressed in baculovirus assessed as substrate phosphorylation using fluorescence-labelled peptides as substrate at 70 uM after 90 mins by microfluidic peptide phosphorylation assay
[13] = molecular target: T2, cGMP-dependent protein kinase 1 (Homo sapiens) (UniProt Q13976); test: Inhibition of human full length PKG-1a expressed in baculovirus assessed as substrate phosphorylation using fluorescence-labelled peptides as substrate at 70 uM after 90 mins by microfluidic peptide phosphorylation assay
T2 sequence (whole entry): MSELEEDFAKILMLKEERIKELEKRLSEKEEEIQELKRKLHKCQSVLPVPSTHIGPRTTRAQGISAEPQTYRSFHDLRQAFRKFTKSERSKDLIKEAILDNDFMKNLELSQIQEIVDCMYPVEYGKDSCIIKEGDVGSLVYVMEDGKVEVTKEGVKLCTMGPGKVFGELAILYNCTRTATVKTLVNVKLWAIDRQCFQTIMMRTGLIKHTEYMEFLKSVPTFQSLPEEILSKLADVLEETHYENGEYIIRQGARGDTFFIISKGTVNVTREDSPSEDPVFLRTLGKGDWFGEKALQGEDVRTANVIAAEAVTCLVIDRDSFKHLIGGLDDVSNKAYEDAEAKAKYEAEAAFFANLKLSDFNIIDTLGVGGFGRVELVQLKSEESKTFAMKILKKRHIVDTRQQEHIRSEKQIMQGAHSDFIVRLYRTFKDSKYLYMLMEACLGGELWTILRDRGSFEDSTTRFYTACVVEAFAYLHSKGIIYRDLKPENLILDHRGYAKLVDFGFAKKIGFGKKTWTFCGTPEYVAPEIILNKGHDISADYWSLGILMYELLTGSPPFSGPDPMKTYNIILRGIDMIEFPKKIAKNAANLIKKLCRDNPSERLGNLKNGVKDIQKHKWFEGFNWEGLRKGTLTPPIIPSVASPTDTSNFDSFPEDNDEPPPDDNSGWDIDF

Tyrosine-protein kinase ABL2 (Homo sapiens), sequence (P42684 whole entry, the tested form may be a part): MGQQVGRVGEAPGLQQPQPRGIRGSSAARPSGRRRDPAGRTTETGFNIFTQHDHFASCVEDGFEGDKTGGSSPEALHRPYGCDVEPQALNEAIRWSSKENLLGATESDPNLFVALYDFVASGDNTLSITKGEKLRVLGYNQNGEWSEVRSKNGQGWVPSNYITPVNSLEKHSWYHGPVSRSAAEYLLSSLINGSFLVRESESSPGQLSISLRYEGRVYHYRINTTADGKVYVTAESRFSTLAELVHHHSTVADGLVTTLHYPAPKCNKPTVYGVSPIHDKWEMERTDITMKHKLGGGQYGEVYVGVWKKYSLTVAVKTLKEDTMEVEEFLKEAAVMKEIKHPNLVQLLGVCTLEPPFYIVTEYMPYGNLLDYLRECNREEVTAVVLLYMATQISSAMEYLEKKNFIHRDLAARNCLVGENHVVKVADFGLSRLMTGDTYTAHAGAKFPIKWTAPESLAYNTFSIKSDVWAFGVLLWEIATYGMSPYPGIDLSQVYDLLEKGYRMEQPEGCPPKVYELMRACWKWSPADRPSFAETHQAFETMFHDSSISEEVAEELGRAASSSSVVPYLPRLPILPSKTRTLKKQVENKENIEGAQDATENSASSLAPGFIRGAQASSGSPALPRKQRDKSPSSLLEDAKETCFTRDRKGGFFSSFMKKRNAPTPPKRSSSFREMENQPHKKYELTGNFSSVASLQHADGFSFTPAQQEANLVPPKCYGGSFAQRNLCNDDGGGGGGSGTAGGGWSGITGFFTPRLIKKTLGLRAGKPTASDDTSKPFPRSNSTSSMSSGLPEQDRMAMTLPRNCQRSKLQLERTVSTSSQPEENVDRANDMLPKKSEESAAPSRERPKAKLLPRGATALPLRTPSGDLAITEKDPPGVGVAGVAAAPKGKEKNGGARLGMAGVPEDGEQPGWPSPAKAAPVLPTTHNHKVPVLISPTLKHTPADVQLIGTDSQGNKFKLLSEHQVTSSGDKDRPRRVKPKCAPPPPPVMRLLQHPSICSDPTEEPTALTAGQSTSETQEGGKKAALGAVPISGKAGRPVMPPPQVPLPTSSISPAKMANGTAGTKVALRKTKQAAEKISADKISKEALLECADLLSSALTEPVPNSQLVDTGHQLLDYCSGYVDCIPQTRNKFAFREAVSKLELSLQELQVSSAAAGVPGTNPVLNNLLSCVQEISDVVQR
Fibroblast growth factor receptor 2 (Homo sapiens), P21802 [N549H], sequence (P21802 whole entry N549H, the tested form may be a part): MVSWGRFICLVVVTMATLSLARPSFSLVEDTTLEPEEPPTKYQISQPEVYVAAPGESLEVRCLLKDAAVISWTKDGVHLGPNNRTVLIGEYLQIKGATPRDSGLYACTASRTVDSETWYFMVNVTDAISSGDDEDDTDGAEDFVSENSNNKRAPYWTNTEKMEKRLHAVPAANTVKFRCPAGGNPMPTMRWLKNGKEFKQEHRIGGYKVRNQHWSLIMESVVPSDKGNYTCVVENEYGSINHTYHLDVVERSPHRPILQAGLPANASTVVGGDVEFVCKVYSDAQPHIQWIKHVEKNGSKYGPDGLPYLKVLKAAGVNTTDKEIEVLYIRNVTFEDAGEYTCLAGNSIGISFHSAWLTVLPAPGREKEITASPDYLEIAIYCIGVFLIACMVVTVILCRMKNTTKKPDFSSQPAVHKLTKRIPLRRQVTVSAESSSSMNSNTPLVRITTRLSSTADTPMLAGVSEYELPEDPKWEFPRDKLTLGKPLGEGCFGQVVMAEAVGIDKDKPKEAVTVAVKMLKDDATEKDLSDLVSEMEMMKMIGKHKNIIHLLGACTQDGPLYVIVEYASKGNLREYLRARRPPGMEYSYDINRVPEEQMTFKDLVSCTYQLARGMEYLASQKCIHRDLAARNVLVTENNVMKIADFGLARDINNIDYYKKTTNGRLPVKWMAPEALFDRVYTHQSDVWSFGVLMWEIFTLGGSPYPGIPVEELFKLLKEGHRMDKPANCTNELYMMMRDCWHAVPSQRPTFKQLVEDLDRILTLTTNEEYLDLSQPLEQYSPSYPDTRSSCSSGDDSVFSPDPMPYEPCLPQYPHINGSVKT
MAP kinase-activated protein kinase 2 (Homo sapiens), sequence (P49137 whole entry, looked up): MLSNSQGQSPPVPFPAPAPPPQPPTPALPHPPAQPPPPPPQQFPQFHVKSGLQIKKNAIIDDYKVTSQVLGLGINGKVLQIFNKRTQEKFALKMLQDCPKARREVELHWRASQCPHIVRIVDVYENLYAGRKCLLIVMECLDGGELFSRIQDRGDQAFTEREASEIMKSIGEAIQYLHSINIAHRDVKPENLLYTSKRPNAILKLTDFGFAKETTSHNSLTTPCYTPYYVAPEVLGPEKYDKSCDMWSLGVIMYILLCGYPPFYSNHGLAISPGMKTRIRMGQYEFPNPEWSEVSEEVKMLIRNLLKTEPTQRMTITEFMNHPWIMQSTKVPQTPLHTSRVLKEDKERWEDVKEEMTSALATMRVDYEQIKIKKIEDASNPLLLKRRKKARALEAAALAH
Ribosomal protein S6 kinase alpha-1 (Homo sapiens), sequence (Q15418 whole entry, the tested form may be a part): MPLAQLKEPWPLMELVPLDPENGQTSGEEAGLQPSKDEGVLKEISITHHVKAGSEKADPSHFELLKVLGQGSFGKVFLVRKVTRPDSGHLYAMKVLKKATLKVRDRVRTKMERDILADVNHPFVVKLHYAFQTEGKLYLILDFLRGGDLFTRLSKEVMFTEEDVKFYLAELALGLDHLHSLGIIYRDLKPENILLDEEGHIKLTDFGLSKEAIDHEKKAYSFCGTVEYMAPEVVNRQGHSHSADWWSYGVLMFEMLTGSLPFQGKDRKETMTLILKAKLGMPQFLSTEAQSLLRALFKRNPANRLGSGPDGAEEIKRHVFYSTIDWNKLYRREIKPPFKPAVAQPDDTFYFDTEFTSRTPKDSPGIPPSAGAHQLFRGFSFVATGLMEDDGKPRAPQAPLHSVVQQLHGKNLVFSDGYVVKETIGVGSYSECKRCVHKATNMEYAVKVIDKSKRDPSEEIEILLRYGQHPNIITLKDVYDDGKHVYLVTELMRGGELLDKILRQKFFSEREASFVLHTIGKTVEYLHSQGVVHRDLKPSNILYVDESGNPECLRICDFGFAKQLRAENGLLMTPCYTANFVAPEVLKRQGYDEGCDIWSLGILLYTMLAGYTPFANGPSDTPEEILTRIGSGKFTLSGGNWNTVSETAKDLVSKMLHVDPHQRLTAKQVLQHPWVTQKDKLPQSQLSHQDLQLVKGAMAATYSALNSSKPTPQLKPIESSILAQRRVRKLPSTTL
MAP kinase p38 (Homo sapiens), sequence (O15264 whole entry, looked up): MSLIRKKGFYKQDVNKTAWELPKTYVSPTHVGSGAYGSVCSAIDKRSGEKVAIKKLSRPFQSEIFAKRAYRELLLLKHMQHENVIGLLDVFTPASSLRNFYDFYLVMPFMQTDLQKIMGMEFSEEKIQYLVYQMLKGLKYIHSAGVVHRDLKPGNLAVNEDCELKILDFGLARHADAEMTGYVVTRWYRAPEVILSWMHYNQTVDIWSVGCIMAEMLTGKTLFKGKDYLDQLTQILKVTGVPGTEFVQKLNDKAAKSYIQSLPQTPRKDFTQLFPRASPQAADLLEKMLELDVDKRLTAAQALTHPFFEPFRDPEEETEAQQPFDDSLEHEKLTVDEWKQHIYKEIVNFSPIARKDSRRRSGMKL
MAP kinase p38 (Homo sapiens), sequence (P53778 whole entry, looked up): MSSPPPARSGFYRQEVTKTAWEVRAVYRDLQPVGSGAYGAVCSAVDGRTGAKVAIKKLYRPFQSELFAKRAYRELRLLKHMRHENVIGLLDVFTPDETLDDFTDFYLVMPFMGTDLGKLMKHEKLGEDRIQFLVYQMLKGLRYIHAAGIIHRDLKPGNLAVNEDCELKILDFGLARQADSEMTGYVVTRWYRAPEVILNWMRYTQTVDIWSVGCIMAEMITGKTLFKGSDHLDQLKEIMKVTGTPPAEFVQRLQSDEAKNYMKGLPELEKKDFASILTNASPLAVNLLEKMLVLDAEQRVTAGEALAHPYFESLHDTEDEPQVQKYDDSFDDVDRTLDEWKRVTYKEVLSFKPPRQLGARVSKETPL
MAP kinase p38 (Homo sapiens), sequence (Q15759 whole entry, looked up): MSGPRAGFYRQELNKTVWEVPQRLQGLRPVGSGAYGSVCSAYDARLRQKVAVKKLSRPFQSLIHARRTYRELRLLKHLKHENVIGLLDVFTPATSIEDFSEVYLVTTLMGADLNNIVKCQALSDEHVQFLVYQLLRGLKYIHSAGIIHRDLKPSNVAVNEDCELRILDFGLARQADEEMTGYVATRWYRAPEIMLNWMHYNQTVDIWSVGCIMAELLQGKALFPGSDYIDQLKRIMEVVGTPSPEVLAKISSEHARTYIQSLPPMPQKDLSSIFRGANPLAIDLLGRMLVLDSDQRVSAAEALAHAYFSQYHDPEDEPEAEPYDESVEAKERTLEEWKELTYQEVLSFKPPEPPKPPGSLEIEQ
MAP kinase p38 (Homo sapiens), sequence (Q16539 whole entry, looked up): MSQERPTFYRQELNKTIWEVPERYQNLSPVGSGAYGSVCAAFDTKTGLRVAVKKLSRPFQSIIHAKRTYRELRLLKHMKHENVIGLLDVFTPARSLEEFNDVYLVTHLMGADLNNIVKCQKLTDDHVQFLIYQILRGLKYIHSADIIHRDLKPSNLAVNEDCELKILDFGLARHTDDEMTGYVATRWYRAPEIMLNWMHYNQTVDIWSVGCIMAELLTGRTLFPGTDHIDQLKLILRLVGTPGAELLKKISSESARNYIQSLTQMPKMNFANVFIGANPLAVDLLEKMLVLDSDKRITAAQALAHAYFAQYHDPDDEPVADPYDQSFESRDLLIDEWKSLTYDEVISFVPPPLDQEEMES

Clc1ccc(C2(c3ccc(-c4ncnc5[nH]cnc45)cc3)CCNCC2)cc1
inhibition [1]: 4%
inhibition [2]: 38%

NC1CCN(c2ncnc3[nH]ccc23)CC1
inhibition [3]: 7.5%

C[C@H](CN(C)C)Oc1nc(Nc2cc3cccc(Cl)c3cn2)cnc1C#N
inhibition [4]: 3.5%
inhibition [5]: 9.5%

NCCc1ccc(-c2ncnc3[nH]cnc23)cc1
inhibition [6]: 50.5%

NC1(Cc2ccc(Cl)cc2)CCN(c2ncnc3[nH]ccc23)CC1
inhibition [7]: 9%

NCC1CCN(c2ncnc3[nH]ccc23)CC1
inhibition [8]: 81%
inhibition [9]: 54%
inhibition [10]: 24.5%
inhibition [11]: 0%

CNCc1ccc(-c2ncnc3[nH]cnc23)cc1
inhibition [12]: 0%
inhibition [13]: 97.5%
